Assays:
[1] = molecular target: T1, BK channels (HEK-293 cell line expressing functional alpha subunits of BK channels) (Homo sapiens, UniProt Q12791); assay: Whole-cell patch clamp assay of BK channel stimulatory activity; type: cell-based; conditions: 3 μM, percentage of control, stably transfected HEK-293 cells
T1 construct: expressed in transfected cells; host or cells: HEK-293 (stably transfected; geneticin and blasticidin selection)
Method: HEK-293 cell line expressing functional alpha subunits of BK channels were passaged at a confluence of 50 to 80%. Cells were seeded into 35 mm sterile culture dishes containing 2 mL culture complete medium. Cells were cultivated at a density that enables single cells (without visible connections to neighbouring cells) to be measured.
Cells were incubated at 37° C. in a humidified atmosphere with 5% CO2 (relative humidity about 95%). […]
The 35 mm culture dishes upon which cells were seeded at a density allowing single cells to be recorded were placed on the dish holder of the microscope and continuously perfused (at approximately 1 mL/min) with the bath solution described. […]
Values (in pA/nA) of the current amplitudes were generated for each voltage step. The recorded current amplitudes at the steady state level of current modulation (+50 mV) were compared to those from control conditions measured in the pre-treatment phase of the same cell with SigmaPlot. The amount of current modulation was calculated as percentage of control. Data from at least 2 individual experiments were collected and the corresponding mean values and standard errors calculated.

plasma proteins = conditions: cited from earlier work
[2] = single intraperitoneal (IP) injection of 2 mg/kg; cited from earlier work

T1 sequence (Q12791 whole entry): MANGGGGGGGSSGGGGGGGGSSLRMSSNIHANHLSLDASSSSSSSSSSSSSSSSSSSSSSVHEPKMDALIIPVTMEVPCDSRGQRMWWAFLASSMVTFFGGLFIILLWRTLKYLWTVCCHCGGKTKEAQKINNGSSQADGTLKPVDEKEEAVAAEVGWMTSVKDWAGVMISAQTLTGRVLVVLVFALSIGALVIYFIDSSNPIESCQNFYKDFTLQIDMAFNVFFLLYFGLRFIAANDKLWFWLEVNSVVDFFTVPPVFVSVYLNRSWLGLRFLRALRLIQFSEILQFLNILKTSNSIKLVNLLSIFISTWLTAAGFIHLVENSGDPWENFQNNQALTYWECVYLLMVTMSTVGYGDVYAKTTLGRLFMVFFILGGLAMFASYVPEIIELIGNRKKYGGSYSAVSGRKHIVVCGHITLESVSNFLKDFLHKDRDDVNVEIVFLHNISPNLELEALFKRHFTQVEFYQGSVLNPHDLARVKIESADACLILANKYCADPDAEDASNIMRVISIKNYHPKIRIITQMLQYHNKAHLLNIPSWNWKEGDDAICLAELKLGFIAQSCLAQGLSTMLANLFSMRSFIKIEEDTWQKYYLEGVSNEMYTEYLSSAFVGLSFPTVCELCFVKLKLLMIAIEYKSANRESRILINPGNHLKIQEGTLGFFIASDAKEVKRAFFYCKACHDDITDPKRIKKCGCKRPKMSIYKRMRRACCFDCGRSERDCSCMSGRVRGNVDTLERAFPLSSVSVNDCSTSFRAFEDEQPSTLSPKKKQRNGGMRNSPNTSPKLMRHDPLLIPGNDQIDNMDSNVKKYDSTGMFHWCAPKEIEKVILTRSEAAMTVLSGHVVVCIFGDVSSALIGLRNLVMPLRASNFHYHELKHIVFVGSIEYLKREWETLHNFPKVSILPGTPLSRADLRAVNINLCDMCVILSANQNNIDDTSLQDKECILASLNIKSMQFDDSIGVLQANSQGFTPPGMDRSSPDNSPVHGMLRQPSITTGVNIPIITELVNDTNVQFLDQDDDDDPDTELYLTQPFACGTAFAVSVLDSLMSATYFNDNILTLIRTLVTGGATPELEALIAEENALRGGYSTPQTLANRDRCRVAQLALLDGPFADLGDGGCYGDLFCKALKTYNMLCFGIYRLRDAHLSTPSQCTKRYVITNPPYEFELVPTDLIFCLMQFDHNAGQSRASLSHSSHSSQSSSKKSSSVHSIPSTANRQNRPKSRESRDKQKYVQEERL

SMILES | Mean stimulation of BK channel activity at +50 mV [1] [%] | Covalent binding of metabolic degradation product to plasma proteins (plasma proteins) | Cmax [2]
COc1ccc(Cl)cc1[C@]1(F)C(=O)Nc2cc(C(F)(F)F)ccc21 [BMS-204352, (3S)-(+)-(5-chloro-2-methoxyphenyl)-1,3-dihydro-3-fluoro-6-(trifluoromethyl)-2H-indol-2-one] | 216.59 | gives rise to a metabolic degradation product that covalently binds to plasma proteins | about 130 ng/mL
COc1ccc(Cl)cc1C1(C)C(=O)Nc2cc(C(F)(F)F)ccc21 (stereo not shown) [Example 1, 3-(5-chloro-2-methoxyphenyl)-3-methyl-6-(trifluoromethyl)indolin-2-one] | 204.09 |  | 

Reference: patent US20240351994A1, “MAXI-K POTASSIUM CHANNEL OPENERS FOR THE TREATMENT OF FRAGILE X ASSOCIATED DISORDERS” (Kaerus Bioscience Limited, priority 2020, published 2024)
